These are literature values, as cited in patent US12637513B2, “Method of treating cancer by administering an inhibitor of erythropoietin receptor activity comprising either erythropoietin receptor or erythropoietin protein” (ImmunEdge, Inc., priority 2022, dated 2026).

One data set addresses PHD2 (Homo sapiens, UniProt Q9GZT9). As to conditions: target PHD2; cited from earlier work.
Data set [1] relates to Hypoxia-Inducible Factor (HIF). As to conditions: target cell empty; cited from earlier work.
The subject of another data set is PHD1-3. As to conditions: target PHD1-3; cited from earlier work.

PHD2, sequence (Q9GZT9 whole entry): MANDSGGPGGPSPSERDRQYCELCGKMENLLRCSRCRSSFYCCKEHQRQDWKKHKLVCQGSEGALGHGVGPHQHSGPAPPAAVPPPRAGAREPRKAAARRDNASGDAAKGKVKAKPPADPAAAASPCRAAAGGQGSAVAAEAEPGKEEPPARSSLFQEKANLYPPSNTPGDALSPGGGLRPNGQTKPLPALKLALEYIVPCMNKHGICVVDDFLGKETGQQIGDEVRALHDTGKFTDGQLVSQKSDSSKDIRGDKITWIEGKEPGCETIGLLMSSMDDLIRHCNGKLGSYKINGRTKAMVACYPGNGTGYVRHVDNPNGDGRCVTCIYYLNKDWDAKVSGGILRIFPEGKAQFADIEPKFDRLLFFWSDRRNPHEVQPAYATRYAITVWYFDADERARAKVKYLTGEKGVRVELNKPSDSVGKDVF

As to `O=C(O)CNC(=O)c1c(O)cc(CCc2ccccc2)n2ncnc12` [Enarodustat], at PHD2, the IC50 was 220 to 5700 nM.

With `CN1CCN(C(=O)COc2ccc(C34CC5CC(CC(C5)C3)C4)cc2)CC1` [IDF-11774], the IC50 in data set [1] is 3650 nM.

On to `O=C(O)CNC(=O)c1c(O)c2ccccc2n(Cc2ccccc2)c1=O` [IOX2], for which, at PHD2, the IC50 is 21 nM.

`COc1ccc(C(NC(=O)c2cnc(-c3cccnn3)nc2O)c2ccc(OC)cc2)cc1` [MK-8617]: in the data set on PHD1-3, the IC50 is 1 to 14 nM.
